Each structure is given as a SMILES string.

This assay deals with ARE in Acinetobacter WH405. It counts as cell-based, Acinetobacter strain WH405 (derivative of strain ADP1). To be noted: hydrocarbon at 5 and 50 mM, WH405 in LB, 37° C. overnight. As to the method:
Acinetobacter strain WH405, an ARE::lacZ derivative of strain ADP1 (Ratajczak et al 1998), was scraped from an overnight plate into LB and diluted to OD600 0.07 (the cells can also be from an overnight culture, as long as cells are diluted in fresh LB). Alkane and alkene induction of the ARE was tested by adding a number of alkenes at 5 and 50 mM to culture tubes, followed by addition of the diluted WH405 solution into tubes (5 mL). Tubes were incubated in a 37° C. shaker overnight. The β-galactosidase activity assay developed by Miller was used to determine the level of induction by the different hydrocarbon from the overnight cultures.
In the case of `C=CCCCCCCCCCCCCCCCCCC` [1-eicosene], the “induction of the ARE (β-galactosidase activity, Miller assay)” value (“induction of the ARE” for short) was “induced”.

`C=CCCCCCCCCCCCCCCC` [1-heptadecene]: the “induction of the ARE” value is “induced”.

Consider `C=CCCCCCCCCCCCCCC` [1-hexadecene], for which the “induction of the ARE” value is listed as “induced”.

Take `C=CCCCCCCCCCCCCCCCCC` [1-nonadecene]: the “induction of the ARE” value was “induced”.

On to `C=CCCCCCCCCCCCCCCCC` [1-octadecene], for which the “induction of the ARE” value is given as “induced”.

Turning to `CCCCCCCC/C=C\CCCCCCCCCCCCC` [9-cis tricosene], the “induction of the ARE” value is “induced”.

As for `CCCCCCCC/C=C\CCCCCCCCCCC` [9-cis-heneicosene], the “induction of the ARE” value was “induced”.

Turning to `CCCCCCCCCC` [decane], the “induction of the ARE” value is “induced”.

As for `CCCCCCCCCCCCCCCC` [hexadecane], the “induction of the ARE” value is given as “induced”.

With `CCCCCC` [hexane], the “induction of the ARE” value is reported as “not”.

`CCCCCCCC` [octane]: the “induction of the ARE” value was “induces”.

Source of the values: patent US20080293060A1, “Methods and Compositions for Identification of Hydrocarbon Response, Transport and Biosynthesis Genes” (priority 2007, published 2008).
